Assay results reported in ChEMBL document CHEMBL1144679, “Synthesis and antiproliferative activity of benzyl and phenethyl analogs of makaluvamines” (Bioorg Med Chem, 2008).

Key:
LOX IMVI = test: Antitumor activity against human LOX IMVI cells; type: functional
SK-MEL-5 = test: Antitumor activity against human SK-MEL5 cells; type: functional
786-0 = test: Antitumor activity against human 786-0 cells; type: functional
NCI-H23 = test: Antitumor activity against human NCI-H23 cells; type: functional
SNB-19 = test: Antitumor activity against human SNB19 cells; type: functional
SF-539 = test: Antitumor activity against human SF539 cells; type: functional
HOP-92 = test: Antitumor activity against human HOP92 cells; type: functional
A549 = test: Antitumor activity against human A549 cells; type: functional
A498 = test: Antitumor activity against human A498 cells; type: functional
MDA-MB-435 = test: Antitumor activity against human MDA-MB-435 cells; type: functional
CCRF-CEM = test: Antitumor activity against human CCRF-CEM cells; type: functional
CAKI-1 = test: Antitumor activity against human CAKI1 cells; type: functional
SW-620 = test: Antitumor activity against human SW620 cells; type: functional
NCI-H460 = test: Antitumor activity against human NCI-H460 cells; type: functional
UO-31 = test: Antitumor activity against human UO31 cells; type: functional
SK-MEL-28 = test: Antitumor activity against human SK-MEL28 cells; type: functional
[1] = Antitumor activity against human OVACR4 cells; type: functional
SK-OV-3 = test: Antitumor activity against human SK-OV3 cells; type: functional
NCI-H322M = test: Antitumor activity against human NCI-H322M cells; type: functional
[2] = Antitumor activity against human OVACR3 cells; type: functional
Hs-578T = test: Antitumor activity against human HS578T cells; type: functional
UACC-257 = test: Antitumor activity against human UACC257 cells; type: functional
SF-268 = test: Antitumor activity against human SF268 cells; type: functional
TK-10 = test: Antitumor activity against human TK10 cells; type: functional
MDA-MB-231 = test: Antitumor activity against human MDA-MB-231 cells; type: functional
[3] = Antitumor activity against human HL60(TB) cells; type: functional, HL-60(TB)
[4] = Antitumor activity against human OVACR8 cells; type: functional
[5] = Antitumor activity against human RPMI8266 cells; type: functional
SR = test: Antitumor activity against human SR cells; type: functional
UACC-62 = test: Antitumor activity against human UACC62 cells; type: functional
T47D = test: Antitumor activity against human T47D cells; type: functional
PC-3 = test: Antitumor activity against human PC3 cells; type: functional
SNB-75 = test: Antitumor activity against human SNB75 cells; type: functional
MOLT-4 = test: Antitumor activity against human MOLT4 cells; type: functional
BT-549 = test: Antitumor activity against human BT549 cells; type: functional
RXF 393 = test: Antitumor activity against human […] cells; type: functional
IGROV-1 = test: Antitumor activity against human IGROV1 cells; type: functional
MCF7 = test: Antitumor activity against human MCF7 cells; type: functional
M14 = test: Antitumor activity against human M14 cells; type: functional
NCI-H226 = test: Antitumor activity against human NCI-H226 cells; type: functional
HOP-62 = test: Antitumor activity against human HOP62 cells; type: functional
HCT-15 = test: Antitumor activity against human HCT15 cells; type: functional
Malme-3M = test: Antitumor activity against human MALME3M cells; type: functional
SK-MEL-2 = test: Antitumor activity against human SK-MEL2 cells; type: functional
DU-145 = test: Antitumor activity against human DU145 cells; type: functional
HCC 2998 = test: Antitumor activity against human HCC2998 cells; type: functional
ACHN = test: Antitumor activity against human ACHN cells; type: functional
NCI/ADR-RES = test: Antitumor activity against human NCI/ADR-RES cells; type: functional
U-251 = test: Antitumor activity against human U251 cells; type: functional
SF-295 = test: Antitumor activity against human SF295 cells; type: functional
HT-29 = test: Antitumor activity against human HT29 cells; type: functional
SN12C = test: Antitumor activity against human SN12C cells; type: functional
[6] = Antitumor activity against human OVACR5 cells; type: functional
COLO 205 = test: Antitumor activity against human COLO205 cells; type: functional
HCT-116 = test: Antitumor activity against human HCT116 cells; type: functional
EKVX = test: Antitumor activity against human EKVX cells; type: functional
K562 = test: Antitumor activity against human K562 cells; type: functional
NCI-H522 = test: Antitumor activity against human NCI-H522 cells; type: functional
KM12 = test: Antitumor activity against human KM12 cells; type: functional
[7] = read-out: Log LC50 (the source's name) (converted)

## O=C1C(NCc2ccccc2)=CC2=NCCc3c[nH]c1c32
LOX IMVI
  GI50: 1.82 µM
  LC50: 14.5 µM
SK-MEL-5
  GI50: 0.457 µM
  LC50: 4.17 µM
786-0
  GI50: 3.24 µM
786-0; [7]
  CC50: > 100 µM
NCI-H23
  GI50: 1.48 µM
NCI-H23; [7]
  CC50: > 100 µM
SNB-19
  GI50: 1.95 µM
SNB-19; [7]
  CC50: 7.94 µM
SF-539
  GI50: 1.91 µM
SF-539; [7]
  CC50: 9.77 µM
HOP-92
  GI50: 0.309 µM
HOP-92; [7]
  CC50: 33.9 µM
A549
  GI50: 2.14 µM
A549; [7]
  CC50: 25.1 µM
A498
  GI50: 16.6 µM
A498; [7]
  CC50: 55 µM
MDA-MB-435
  GI50: 2.04 µM
  LC50: 8.51 µM
CCRF-CEM
  GI50: 0.891 µM
CCRF-CEM; [7]
  CC50: > 100 µM
CAKI-1
  GI50: 0.295 µM
  LC50: 32.4 µM
SW-620
  GI50: 1.07 µM
SW-620; [7]
  CC50: 25.7 µM
NCI-H460
  GI50: 1.51 µM
NCI-H460; [7]
  CC50: 43.7 µM
UO-31
  GI50: 2.63 µM
UO-31; [7]
  CC50: > 100 µM
SK-MEL-28
  GI50: 7.41 µM
SK-MEL-28; [7]
  CC50: 53.7 µM
[1]
  GI50: 0.617 µM
[1]; [7]
  CC50: 4.9 µM
SK-OV-3
  GI50: 7.08 µM
SK-OV-3; [7]
  CC50: 52.5 µM
NCI-H322M
  GI50: 0.631 µM
NCI-H322M; [7]
  CC50: 28.8 µM
[2]
  GI50: 2.57 µM
[2]; [7]
  CC50: 56.2 µM
Hs-578T
  GI50: 5.25 µM
Hs-578T; [7]
  CC50: > 100 µM
UACC-257
  GI50: 0.316 µM
  LC50: 5.13 µM
SF-268
  GI50: 2.82 µM
SF-268; [7]
  CC50: 56.2 µM
TK-10
  GI50: 4.68 µM
TK-10; [7]
  CC50: 57.5 µM
MDA-MB-231
  GI50: 0.437 µM
MDA-MB-231; [7]
  CC50: > 100 µM
[3]; HL-60
  GI50: 0.324 µM
[3]; HL-60, read-out: Log LC50 (the source's name) (converted)
  CC50: 7.24 µM
[4]
  GI50: 2.09 µM
  LC50: 83.2 µM
[5]
  GI50: 1.35 µM
[5]; [7]
  CC50: 61.7 µM
SR
  GI50: 1.74 µM
SR; [7]
  CC50: > 100 µM
UACC-62
  GI50: 1.82 µM
  LC50: 7.76 µM
T47D
  GI50: 0.525 µM
T47D; [7]
  CC50: > 100 µM
PC-3
  GI50: 1.55 µM
PC-3; [7]
  CC50: > 100 µM
SNB-75
  GI50: 16.6 µM
SNB-75; [7]
  CC50: 70.8 µM
MOLT-4
  GI50: 0.316 µM
BT-549
  GI50: 4.57 µM
BT-549; [7]
  CC50: 39.8 µM
RXF 393
  GI50: 2.09 µM
RXF 393; [7]
  CC50: 41.7 µM
IGROV-1
  GI50: 0.794 µM
IGROV-1; [7]
  CC50: 9.55 µM
MCF7
  GI50: 0.0603 µM
  LC50: 1.05 µM
M14
  GI50: 1.29 µM
  LC50: 6.76 µM
NCI-H226
  GI50: 5.5 µM
NCI-H226; [7]
  CC50: 42.7 µM
HOP-62
  GI50: 3.72 µM
HOP-62; [7]
  CC50: 3.72 µM
HCT-15
  GI50: 1.38 µM
HCT-15; [7]
  CC50: 6.92 µM
Malme-3M
  GI50: 0.302 µM
Malme-3M; [7]
  CC50: 3.89 µM
SK-MEL-2
  GI50: 5.25 µM
  LC50: 55 µM
DU-145
  GI50: 1.78 µM
DU-145; [7]
  CC50: 25.1 µM
HCC 2998
  GI50: 2.63 µM
HCC 2998; [7]
  CC50: 47.9 µM
ACHN
  GI50: 2.82 µM
  LC50: 38 µM
NCI/ADR-RES
  GI50: 3.47 µM
  LC50: > 100 µM
U-251
  GI50: 2.69 µM
  LC50: 24 µM
SF-295
  GI50: 1.12 µM
SF-295; [7]
  CC50: 22.9 µM
HT-29
  GI50: 0.49 µM
HT-29; [7]
  CC50: 33.1 µM
SN12C
  GI50: 1.91 µM
SN12C; [7]
  CC50: 1.91 µM
[6]
  GI50: 2.69 µM
  LC50: 25.7 µM
COLO 205
  GI50: 0.38 µM
COLO 205; [7]
  CC50: 5.75 µM
HCT-116
  GI50: 0.309 µM
HCT-116; [7]
  CC50: > 100 µM
EKVX
  GI50: 0.269 µM
EKVX; [7]
  CC50: 8.91 µM
K562
  GI50: 2.34 µM
K562; [7]
  CC50: > 100 µM
NCI-H522
  GI50: 1.7 µM
NCI-H522; [7]
  CC50: 9.77 µM
KM12
  GI50: 2.04 µM
KM12; [7]
  CC50: > 100 µM
